Results as given in patent US20190038632A1 (BAYER PHARMA AKTIENGESELLSCHAFT, priority 2016, published 2019).
Where “and” joins values, the source holds several entries; their conditions need not be identical. Identical values can stand only once.

Tested on: NHL patients
Experiment: clinical study A: copanlisib therapy in NHL patients, best response and PFS, also by baseline tumor gene expression
Format: in vivo, human
Details: for PFS (Independent*) Days / Best Response (Independent*): one line per subject; for PFS (Independent*) Days: censor status in column beside
[1] = mantle cell lymphoma patients (N = 2)

Excerpt: Best response status and progression-free survival (hereinafter referred to as “PFS”) from independent review assessment were used for gene expression analysis.
Bioinformatics and statistical analyses were done for all 24 NHL patients.
A weighted gene expression score (hereinafter referred to as “WGS”) reflecting the overall expression level for each gene set was generated from logistic regression and Cox proportional hazards models to assess the association with response status (best-response-WGS) and PFS (PFS-WGS), respectively.
Both the best-response-WGS as well as the PFS-WGS were in turn used in logistic regression or Cox regression models to assess the association of either WGS with the endpoints. Moreover, the raw best-response WGS was used to compute non-cross validated AUC estimates for responder (CR+PR) and non-responder (SD+PD) classifications.

COc1c(OCCCN2CCOCC2)ccc2c1N=C(NC(=O)c1cnc(N)nc1)N1CCN=C21 [copanlisib]
HR for PFS (CSTB, median gene expression level as cutoff, p=0.07): 3.3 (0.9-12) | median PFS days (CSTB, median gene expression level as cutoff, shorter-PFS group (high expression per text)): 74 days | HR for PFS (MT2A, median gene expression level as cutoff, p=0.30): 1.3 (0.8-2.2) | PFS (NHL patients with low BCR WGS (median cut-off 41.7)): 62 days | HR for PFS (NOP10, median gene expression level as cutoff, p=0.23): 1.9 (0.7-5.4) | PFS (Independent*) Days (diffuse large B-cell lymphoma patients (N = 5)): 56 days and 13 days and 49 days | PFS (Independent*) Days (follicular lymphoma patients (N = 10)): 53 days and 74 days and 28 days | Best Response (Independent*) (follicular lymphoma patients (N = 10), data cutoff February 2015): CRu | HR for PFS (high vs low BCR WGS, nominal Cox model p<0.0001): 0.035 | HR for PFS (high vs low GPR18 expression, nominal Cox model p<0.01): 0.17 | Best Response (Independent*) [1]: CRu | PFS (Independent*) Days [1]: 7 days | PFS (Independent*) Days (trans. indolent lymphoma patients (N = 2)): 16 days and 42 days
